The text below walks through data of patent US10675331B2, “Method for achieving desired glial growth factor 2 plasma levels” (priority 2008, dated 2020).

By IC50 is commonly meant the point on the concentration scale where inhibition reaches its midpoint.

For series [1] the following is noted: in vivo; cited from earlier work.
For another series, the target named is MAP kinase-kinase. The conditions noted are these: many assays; read-out: IC50 values for PD 98059-induced effects; cited from earlier work.
A further series has as its system Akt. In words: Akt (PI3-kinase pathway) activation in Schwann cell-DRG co-cultures, Western blot. It is filed as cell-based, rat. To be noted: U0126 with GGF2.
A further series relates to Krox20. The conditions noted are these: U0126 treatment, 11 days.
The test system of a further series is P0. The conditions noted are these: U0126 treated cultures.
The next series deals with c-Jun. In words: c-Jun expression in co-culture lysates, Western blot. It is filed as cell-based, rat. The conditions noted are these: GGF+U0126, 11 days. From the text:
Control cultures were maintained without any treatment (NT). Scale bar: 100 μm. […] Error bars indicate±SE (p<0.001). […] Actin level served as a loading control.
In general terms: A western blot detects proteins with antibodies after separation by electrophoresis.

Series [2] concerns Schwann cell-DRG neuron co-cultures. The series can be described thus: Myelination in Schwann cell-DRG neuron co-cultures, MBP immunostaining. It is filed as cell-based, rat. How it is done:
Schwalm cells were prepared from sciatic nerves of newborn rats (1-2 day old) as described previously (Brookes et al., Brain Res. 1979; 165:105-118). For routine culture, Schwann cells were grown in. Dulbecco's modified Eagle's medium (DMEM) with 10% fetal bovine serum (FBS) supplemented with EGF-domain neuregulin-1 (R&D Systems) (10 ng/ml) and Forskolin (2 μM). Cells between passage 2-4 were used in all experiments described in the text.
Dissociated DRG were prepared from embryonic day 14.5 rat embryos as described previously (Eldridge et al., J Cell Biol. 1987; 105(2):1023-34) and plated onto collagen (type-1 rat tail collagen,)-coated 12 mm glass coverslips at a density of 1.25 DRG/coverslip. Five to six hours later, the cultures were flooded with neurobasal medium (Cellgro,) supplemented with B27 (GIBCO), 20% glucose, NGF (50 ng/ml) and 5-fluorodeoxyuridine (FUdR, 10 μM) and maintained in the medium for additional 2-3 days in order to remove proliferating non-neuronal cells. Cultures were then switched to fresh medium without FUdR and maintained until the DRG axons reached the periphery of the coverslips. After the axonal networks were established, Schwann cells were plated onto the neurons at a density of 100,000 cells/coverslip. […] Ten to eleven days later, myelination was assessed by immunostaining for MBP. […]

The test system of a further series is MEK-1 and MEK-2. The conditions noted are these: cited from earlier work.
Another series concerns MAPK. The series can be described thus: MAPK (Erk) activation in Schwann cell-DRG co-cultures, Western blot. It is filed as cell-based, rat.
For series [3] the following is noted: Phase I studies; cited from earlier work.
Series [4] relates to advanced colorectal, NSCLC, breast, and pancreatic cancer. To be noted: 67 patients; cited from earlier work.
Another series has as its system advanced kidney cancer. The conditions noted are these: cited from earlier work.
Another series relates to metastatic breast cancer. The conditions noted are these: less in the intermittent dosing group than the continuous; cited from earlier work.
The subject of the next series is melanoma. To be noted: cited from earlier work.
Setting [5] is: patients who received sorafenib.

SMILES strings stand for the structures. “Also recorded” adds a separate entry of the source.

Method for Akt: (§1) Monoclonal antibody to phosphorylated Akt and polyclonal antibody to phosphorylated MAPK were purchased from Cell Signaling and were used at dilutions of 1:1000 and 1:500, respectively. Polyclonal antibodies to Akt and MAPK (Promega) were used at dilutions of 1:1000 and 1:5000, respectively.
(§2) To prepare cell lysates, 90-95% confluent rat Schwann cells on 60 mm plates or co-cultures were washed twice in phosphate-buffered saline (PBS) and then lysed in 300 μl ice-cold lysis buffer (50 mM Tris HCl pH 7.4, 1% NP-40, 0.25% Sodium Deoxycholate, 150 mM NaCl, 1 mM EGTA, 10 μg/ml Leupeptin, 2 μg/ml Aprotinin, 1 mM PMSF and 0.5 mM sodium orthovanadate). Lysates were cleared by centrifugation for 15 min at 14,000 rpm in the cold and the protein concentration of the supernatants was determined according to manufacturer specifications (Bio-Rad: Hercules, Calif.). […]
(§3) To assess the possibility that the inhibitory effect of GGF2 on myelination could be due to its ability to induce a robust MAPK activation in Schwann cells, the present inventors used a well-established in vitro myelinating culture system in which Schwann cells are co-cultured with dorsal root ganglion (DRG) neurons and induced to myelinate the associated axons by addition of ascorbic acid to the culture media. […] Twenty minutes later, cell lysates were prepared and MAPK activation was determined by Western blot analysis. […]
Method for Krox20: Schwann cell-DRG co-cultures were pre-treated with U0126 for 30 minutes then GGF (0.6 nM) was added in the continuous presence of U0126. After 45 minutes the cell lysates were prepared and level of p-Erk and p-Akt were determined. […] Control cultures were maintained without any treatment (NT). […] Co-cultures were treated with increasing concentration of U0126 (0.5, 1 and 3 nM) under myelinating condition and 11 days later, myelination was analyzed as above. […] Co-cultures were maintained under myelinating condition in the presence of GGF or GGF+U0126 (0.5, 1 and 3 nM) for 11 days and the cell lysates were analyzed for MBP, c-Jun and Krox 20 expression. Actin level served as a loading control.
as §2
Method for MAPK: as §1
To prepare cell lysates, 90-95% confluent rat Schwann cells on 60 mm plates or co-cultures were washed twice in phosphate-buffered saline (PBS) and then lysed in 300 μl ice-cold lysis buffer (50 mM Tris HCl pH 7.4, 1% NP-40, 0.25% Sodium Deoxycholate, 150 mM NaCl, 1 mM EGTA, 10 μg/ml Leupeptin, 2 μg/ml Aprotinin, 1 mM PMSF and 0.5 mM sodium orthovanadate). Lysates were cleared by centrifugation for 15 min at 14,000 rpm in the cold and the protein concentration of the supernatants was determined according to manufacturer specifications (Bio-Rad: Hercules, Calif.). For Western blot analysis, 50-70 μg of Schwann cell lysates were size-fractionated on 10% SDS-polyacrylamide gels and transferred onto PVDF membranes. After blocking in 5% milk, the membranes were incubated with appropriate primary antibodies prepared in blocking solution. After incubating with horseradish peroxidase conjugated secondary antibodies, the protein bands were visualized by enhanced chemiluminescence. For immunoprecipitation, 500 μg of Schwann cell lysates were incubated with 0.6 μg of primary antibody for 3 hours at 4° C., then incubated with 50 μl Sepharose A beads for 1 hour. […]
as §3

As to `N#C/C(=C(/N)Sc1ccc(N)cc1)c1ccccc1C(F)(F)F` [SL 327], in series [1], the brain penetration result is “brain penetrant”.

Regarding `COc1cccc(-c2cc(=O)c3ccccc3o2)c1N` [PD 98059], the IC50 on MAP kinase-kinase is 1 to 20 µM.

`N#CC(=C(/N)Sc1ccccc1N)/C(C#N)=C(\N)Sc1ccccc1N` [U0126]: the “effect on GGF2-induced PI3-kinase / Akt activation” value in the series on Akt is recorded as “no effect”. The Krox20 expression entry in the series with Krox20 is on record as “increase in Krox20 expression”. For the same compound, the P0 expression result in the series with P0 is listed as “increase in P0 expression”. Besides, in the series on c-Jun, the “GGF-induced c-Jun expression” value was “down-regulating”. Also, the level of myelination entry in series [2] (U0126 in the absence of GGF2, FIG. 3E) is on record as “increase in the level of myelination”. For the same compound, the “myelination in GGF2-treated co-cultures” value in series [2] (co-treated with GGF2 and U0126, ten to eleven days) is listed as “dose-dependent increase in myelination; also recorded: the inhibitory effect of GGF2 was reversed”. Besides, in the series with MEK-1 and MEK-2, the “higher potency than PD 98059” value is reported as 100 fold. The “level of GGF2-induced MAPK activation” value in the series on MAPK (U0126 1 μM, 30 minutes pretreatment, GGF2 0.6 nM) was “reduced to the basal level”. Further, the “MAPK activation in the co-culture” value in the series on MAPK (U0126 10 μM, 30 minutes pretreatment, GGF2 0.6 nM) is reported as “completely abolished”. Also, the “GGF2-induced Erk activation” value in the series on MAPK (increasing concentrations of U0126, FIG. 3B) is reported as “inhibited GGF2-induced Erk activation in a dosage-dependent manner”.

In the case of `O=C(NOCC1CC1)c1ccc(F)c(F)c1Nc1ccc(I)cc1Cl` [CI-1040], the side effects entry in series [3] is “mild gastrointestinal and skin side effects”. Further, in series [4], the responses entry was “no responses” and the tolerability result was “well tolerated”.

Regarding `CNC(=O)c1cc(Oc2ccc(NC(=O)Nc3ccc(Cl)c(C(F)(F)F)c3)cc2)ccn1` [sorafenib, Sorafenib], in the series with advanced kidney cancer (768 patients), the “most common side effects” value was “hypertension, fatigue, diarrhea, and rash”; the tolerability result was “very well tolerated”. For the same compound, the “progression-free survival (PFS), median” value in the series on advanced kidney cancer (769 analyzed patients) is on record as 24 weeks. For the same compound, in the series on advanced kidney cancer (in vivo), the 12-week progression-free rate is 79%. Besides, in the series with advanced kidney cancer (setting [5]), the disease control was 80%, the partial response is given as 2% and the stable disease was 78%.

In the case of `Cn1cncc1[C@@](N)(c1ccc(Cl)cc1)c1ccc2c(c1)c(-c1cccc(Cl)c1)cc(=O)n2C` [Zarnestra, tipifarnib], the “major side effects observed” value in the series on metastatic breast cancer was “bone marrow suppression and neuropathy”.

With `O=C(NOC[C@H](O)CO)c1ccc(F)c(F)c1Nc1ccc(I)cc1F` [PD 0325901], the “response in melanoma patients” value in the series on melanoma (human, in vivo) is on record as “some partial response”. Besides, in the series on melanoma (oral), the “dose at which ocular and neurological toxicity presented” value is no less than 10 mg twice-a-day.
